target: T1, recombinant human liver glycogen phosphorylase (Homo sapiens, UniProt P06737); assay: Measuring liver glycogen phosphorylase activity (forward reaction system, NADPH absorbance at 340 nm); assay type: biochemical; conditions: compound concentration 100 nmol (in parentheses); read-out: inhibition rate (%) at a certain concentration
T1 construct: made in house; host or cells: Sf9 insect cells (crude homogenate, diluted, used as the enzyme solution)
T1 sequence (P06737 1-847): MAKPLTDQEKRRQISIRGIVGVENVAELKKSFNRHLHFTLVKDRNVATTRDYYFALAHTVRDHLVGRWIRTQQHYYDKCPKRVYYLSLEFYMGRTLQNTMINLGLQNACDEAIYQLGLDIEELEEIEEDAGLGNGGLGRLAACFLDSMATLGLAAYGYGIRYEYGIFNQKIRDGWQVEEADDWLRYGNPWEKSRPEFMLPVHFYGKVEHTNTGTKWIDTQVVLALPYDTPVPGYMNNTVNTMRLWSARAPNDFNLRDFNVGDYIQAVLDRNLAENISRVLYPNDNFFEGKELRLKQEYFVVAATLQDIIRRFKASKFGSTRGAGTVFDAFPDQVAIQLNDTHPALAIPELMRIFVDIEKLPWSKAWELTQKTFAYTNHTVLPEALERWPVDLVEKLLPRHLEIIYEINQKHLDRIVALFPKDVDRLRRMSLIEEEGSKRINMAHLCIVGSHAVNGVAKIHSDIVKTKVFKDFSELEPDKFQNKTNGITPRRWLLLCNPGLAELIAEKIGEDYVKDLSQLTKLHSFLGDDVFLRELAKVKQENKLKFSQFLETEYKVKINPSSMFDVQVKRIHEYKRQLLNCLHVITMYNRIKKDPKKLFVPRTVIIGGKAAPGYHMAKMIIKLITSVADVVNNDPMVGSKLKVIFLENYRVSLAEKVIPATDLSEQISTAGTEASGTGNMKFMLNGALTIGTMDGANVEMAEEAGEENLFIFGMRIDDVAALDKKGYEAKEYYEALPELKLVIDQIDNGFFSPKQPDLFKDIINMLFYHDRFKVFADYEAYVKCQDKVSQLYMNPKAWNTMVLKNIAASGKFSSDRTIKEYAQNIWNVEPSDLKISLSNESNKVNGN
Description: [Pharmacological Test] 1. Exemplary Test (1) Method for Measuring Liver Glycogen Phosphorylase Activity
The measurement of glycogen phosphorylase activity was carried out by a method using the forward reaction system.
The measurement of glycogen phosphorylase activity using the forward reaction system was carried out as follows. Glucose-1-phosphate prepared from glycogen by glycogen phosphorylase was converted into glucono-δ-lactone 6-phosphate through transphosphorylation and dehydrogenation using phosphoglucomutase and glucose-6-phosphate dehydrogenase (G6PDH). NADPH generated from NADP during the dehydrogenation by G6PDH was detected.
A homogenate of the Sf9 cells which expressed exogenously recombinant human liver glycogen phosphorylase was diluted with 100 mmol/LBES buffer solution (pH 6.8, containing 2 mmol/L EDTA) and the dilution was used as the enzyme solution of human liver glycogen phosphorylase. As the substrate, a phosphate buffer (containing 16 mmol/L KH2PO4, 24 mmol/L Na2HPO4) was used. A mixture of 8 U/mL phosphoglucomutase and 60 U/mL G6PDH was prepared in BES buffer solution. Buffer solution (containing 1.4 mmol/L NADP, 30 mmol/L MgCl2, 8 μmol/L glucose-1,6-diphosphate, 8 mg/mL glycogen, 40 mmol/LBES, 0.8 mmol/L EDTA) for reaction and a glucose solution (containing 75 mmol/L glucose, 100 mmol/LBES, 2 mmol/L EDTA) were prepared individually. The test compound was dissolved in 1% DMSO solution.
The enzymatic reaction was begun by adding 20 μL of the recombinant human liver glycogen phosphorylase solution and 20 μL of the mixture of phosphoglucomutase and G6PDH to the mixture of 20 μL of the glucose solution, 20 μL of the substrate, 100 μL of the buffer solution for reaction and 20 μL of the test compound solution. As control, 1% DMSO solution was added instead of the test compound. The mixture without the substrate was used as blank. The absorbance at 340 nm was measured immediately after the reaction started. The absorbance at 340 nm was measured again after reacting at room temperature for 75 minutes. The enzymatic activity is a value obtained by subtracting the blank variation in absorbance over 75 minutes from the variation in absorbance over 75 minutes.
The inhibition rate (%) of the test compound was calculated by the expression “(1-enzymatic activity of test compound/enzymatic activity of control)×100.”
A linear equation was determined from the two concentration points with the 50% inhibition rate therebetween, and the IC50 value was calculated from the concentration at the intersection of the line with the 50% inhibition rate.
“IC50” in the tables indicates the above-described enzyme inhibitory activity with respect to liver glycogen phosphorylase, and the activity to inhibit liver glycogen phosphorylase was represented as ++ when the IC50 value (nmol/L) was less than 100 nmol/L, as + when the IC50 value was between 100 nmol/L and 300 nmol/L. When IC50 is 300 nmol/L or more, an inhibition rate (%) at a certain concentration of the compound (I) of the present invention is shown in Tables. For example, when the inhibition rate is 20% at a concentration of 300 nmol, the rate is described as 20% (300).

Row | SMILES | inhibition at 0.1 µM [%]
1 | CCOc1cc(C(C)(C)C(=O)O)cnc1NC(=O)c1cc(NC(=O)c2cc(F)c(F)cc2Cl)[nH]n1 [Example 1-150] | 13.8
2 | CCCCN(C(=O)c1cc(NC(=O)c2cc(F)c(F)cc2Cl)[nH]n1)c1ccc(CC(=O)OCC)cc1 [Example 4-45] | 5.9
3 | CCOC(=O)C(C)(C)c1cnc(NC(=O)c2cc(NC(=O)c3cc(F)c(F)cc3Cl)[nH]n2)c(OCC)c1 [Example 1-148] | 14.1

same assay, conditions: compound concentration 300 nmol (in parentheses); read-out: inhibition rate (%) at a certain concentration

Row | SMILES | inhibition at 0.3 µM [%]
4 | CN(C)CCNC(=O)c1cc(NC(=O)c2cc(F)c(F)cc2Cl)[nH]n1 [Example 3-42] | 1.1
5 | O=C(NCc1ccccc1)c1cc(NC(=O)c2cc(F)ccc2C(F)(F)F)[nH]n1 [Example 4-33] | 15.2
6 | CN1CCC(N(C)C(=O)c2cc(NC(=O)c3cc(F)c(F)cc3Cl)[nH]n2)CC1 [Example 1-83] | 6.1
7 | CCCCN(C(=O)c1cc(NC(=O)c2cc(F)c(F)cc2Cl)[nH]n1)C1CCN(C(=O)C(=O)OCC)CC1 [Example 1-112] | 49.9
8 | COCCN(CCOC)C(=O)c1cc(NC(=O)c2cc(F)c(F)cc2Cl)[nH]n1 [Example 1-94] | 36.5
9 | CCCCN(C(=O)c1cc(NC(=O)c2cc(F)c(F)cc2Cl)[nH]n1)C1CCC(C(=O)OC(C)(C)C)CC1 (stereo not drawn) [Example 1-104] | 32.3
10 | CCCCN(C(=O)c1cc(NC(=O)c2cc(F)c(F)cc2Cl)[nH]n1)C1CCNCC1 [Example 1-109] | 33.3

same assay, conditions: compound concentration 480 nmol (in parentheses); read-out: inhibition rate (%) at a certain concentration

Row | SMILES | inhibition at 0.48 µM [%]
11 | O=C(NCCc1ccccc1)c1cc(NC(=O)c2cc(F)c(F)cc2Cl)[nH]n1 [Example 3-9] | 50

same assay, conditions: compound concentration 1000 nmol (in parentheses); read-out: inhibition rate (%) at a certain concentration

Row | SMILES | inhibition at 1 µM [%]
12 | O=C(NC(c1ccccc1)c1ccccc1)c1cc(NC(=O)c2cc(F)c(F)cc2Cl)[nH]n1 [Example 3-19] | 9.2
13 | O=C(Nc1cc(C(=O)N2CCCCC2)n[nH]1)c1cc(F)c(F)cc1Cl [Example 3-5] | 41.1

same assay, conditions: enzyme inhibitory activity with respect to liver glycogen phosphorylase; class symbols

Row | SMILES | IC50 [nM]
14 | COc1ccc(CNC(=O)c2cc(NC(=O)c3cc(F)c(F)cc3Cl)[nH]n2)c(OC)c1 [Example 1-14] | < 100
15 | Cc1nc(C)c(CNC(=O)c2cc(NC(=O)c3cc(F)c(Cl)cc3Cl)[nH]n2)o1 [Example 3-53] | < 100
16 | CC(=O)OCCN(CCNC(=O)c1ccc(CNC(=O)c2cc(NC(=O)c3cc(F)c(F)cc3Cl)[nH]n2)cc1)CCOC(C)=O [Example 1-47] | < 100
17 | N#CC(NC(=O)c1cc(NC(=O)c2cc(F)c(F)cc2Cl)[nH]n1)c1ccccc1 (stereo not drawn) [Example 1-75] | < 100
18 | Cc1nc(CNC(=O)c2cc(NC(=O)c3cc(F)c(F)cc3Cl)[nH]n2)cs1 [Example 1-45] | < 100
19 | O=C(NCCO)c1ccc(CNC(=O)c2cc(NC(=O)c3cc(F)c(F)cc3Cl)[nH]n2)cc1 [Example 1-48] | < 100
20 | CCCN(C(=O)c1cc(NC(=O)c2cc(F)c(F)cc2Cl)[nH]n1)C1CCC(C(=O)OCC)CC1 (stereo not drawn) [Example 1-11] | 100 to 300
21 | CCCCN(C(=O)c1cc(NC(=O)c2cc(F)c(F)cc2Cl)[nH]n1)c1ccccc1 [Example 3-17] | < 100
22 | CCCCN(Cc1ccccc1)C(=O)c1cc(NC(=O)c2cc(F)c(F)cc2Cl)[nH]n1 [Example 1-85] | < 100
23 | O=C(NCc1ncccc1C(F)(F)F)c1cc(NC(=O)c2cc(F)c(F)cc2Cl)[nH]n1 [Example 1-27] | < 100
24 | CCCCN(C(=O)c1cc(NC(=O)c2cc(F)c(F)cc2Cl)[nH]n1)C1CCCCC1 [Example 1-89] | < 100
25 | COc1ccccc1N(C)C(=O)c1cc(NC(=O)c2cc(F)c(F)cc2Cl)[nH]n1 [Example 3-28] | 100 to 300
26 | CN1CCN(c2ccc(CNC(=O)c3cc(NC(=O)c4cc(F)c(F)cc4Cl)[nH]n3)cn2)CC1 [Example 5-39] | < 100
27 | O=C(NCCN1CCOCC1)c1ccc(CNC(=O)c2cc(NC(=O)c3cc(F)c(F)cc3Cl)[nH]n2)cc1 [Example 5-4] | < 100
28 | O=C(NCc1ccc(N2CCSCC2)nc1)c1cc(NC(=O)c2cc(F)c(F)cc2Cl)[nH]n1 [Example 1-153] | < 100
29 | CCOC(=O)CCN(Cc1ccccc1)C(=O)c1cc(NC(=O)c2cc(F)c(F)cc2Cl)[nH]n1 [Example 1-132] | < 100
30 | O=C(NCc1ccccc1Cl)c1cc(NC(=O)c2cc(F)c(F)cc2Cl)[nH]n1 [Example 3-36] | < 100
31 | CCCCCCc1nc(C)c(CNC(=O)c2cc(NC(=O)c3cc(F)c(F)cc3Cl)[nH]n2)o1 [Example 1-163] | < 100
32 | COc1ccc(CNC(=O)c2cc(NC(=O)c3ccc(Cl)cc3Cl)[nH]n2)cn1 [Example 3-50] | < 100
33 | Nc1ccccc1CNC(=O)c1cc(NC(=O)c2cc(F)c(F)cc2Cl)[nH]n1 [Example 1-65] | < 100
34 | CC(C)OCCN(C(=O)c1cc(NC(=O)c2cc(F)c(F)cc2Cl)[nH]n1)C1CCCCC1 [Example 1-101] | < 100
35 | CCNC(=O)c1ccc(CNC(=O)c2cc(NC(=O)c3cc(F)c(F)cc3Cl)[nH]n2)cc1 [Example 1-120] | < 100
36 | CC(C)c1ccc(CNC(=O)c2cc(NC(=O)c3cc(F)c(F)cc3Cl)[nH]n2)cc1 [Example 1-35] | < 100
37 | O=C(O)CCNC(=O)c1ccc(CNC(=O)c2cc(NC(=O)c3cc(F)c(F)cc3Cl)[nH]n2)cc1 [Example 5-7] | < 100

same assay, conditions: figure in brackets (100); read-out: IC50: % value given with (100)

Row | SMILES | inhibition at 0.1 µM [%]
38 | CC(=O)Nc1cc(F)c(F)cc1C(=O)Nc1cc(C(=O)NCc2cccnc2)n[nH]1 [Example 7-13] | 1.9
39 | CN(C(=O)c1cc(NC(=O)c2cc(F)c(F)cc2Cl)[nH]n1)c1ccc(C(=O)OCOC(=O)C(C)(C)C)cc1 [Example 6-13] | 17.5
40 | O=C(NC1Cc2ccccc2C1)c1cc(NC(=O)c2cc(F)c(F)cc2Cl)[nH]n1 [Example 6-42] | 21.7

same assay, conditions: figure in brackets (300); read-out: IC50 column: % value printed with (300)

Row | SMILES | inhibition at 0.3 µM [%]
41 | O=C(Nc1cc(C(=O)NCc2cccnc2)n[nH]1)c1ccccc1 [Example 7-8] | 6.8

same assay, conditions: human liver glycogen phosphorylase; class symbol

Row | SMILES | IC50 [nM]
42 | CN(C)C(=O)Nc1ccc(CNC(=O)c2cc(NC(=O)c3cc(F)c(F)cc3Cl)[nH]n2)cc1 [Example 6-37] | < 100
43 | N=C(Nc1ccc(CNC(=O)c2cc(NC(=O)c3cc(F)c(F)cc3Cl)[nH]n2)cc1)c1ccccc1F [Example 6-35] | < 100
44 | O=C(NCc1cccnc1)c1cc(NC(=O)c2ccc(Cl)cc2Cl)[nH]n1 [Example 7-3] | < 100
45 | Cc1cc(F)c(F)cc1C(=O)Nc1cc(C(=O)N(C)c2ccc(-c3nnn[nH]3)cc2)n[nH]1 [Example 7-2] | < 100
46 | Cc1cc(F)c(F)cc1C(=O)Nc1cc(C(=O)NCc2ccnc(C#N)c2)n[nH]1 [Example 7-15] | < 100
47 | Cc1ccc(S(=O)(=O)Nc2ccccc2CNC(=O)c2cc(NC(=O)c3cc(F)c(F)cc3Cl)[nH]n2)cc1 [Example 6-38] | < 100
48 | O=C(Nc1cc(C(=O)N2C=NC3CCCCC3C2)n[nH]1)c1cc(F)c(F)cc1Cl (stereo not drawn) [Example 6-43] | < 100

— patent US20070032529A1, “Pyrazole compounds and their use as antidiabetes agents” (Japan Tobacco Inc., priority 2005, published 2007)
